Data on six compounds can be found in EP2599815B1, “POLYCARBOXYLIC ACID CONDENSATE, THERMOSETTING RESIN COMPOSITION, SUBSTRATE FOR MOUNTING SEMICONDUCTOR ELEMENT AND PROCESS FOR PRODUCING SAME, AND SEMICONDUCTOR DEVICE” (Hitachi Chemical Co., Ltd., priority 2010, dated 2012).

≈ marks a conversion by molar mass, not a printed value. Like-named read-outs stand apart in the source and are kept apart here.

Series [1] can be described thus: Solubility in water at 30°C of carboxyl group-containing compounds. The conditions noted are these: for solubility: distilled water, 30 °C, water, thermodynamic from solid.

`O=C(O)C1CCCCC1C(=O)O` (stereo not drawn) [hexahydrophthalic acid]: the concentration in solution in series [1] (solubility) was 1.5 mg/mL (≈ 8.71 mM).

On to `O=C(O)C1CCC(C(=O)O)C(C(=O)O)C1` (stereo not drawn) [hydrogenated trimellitic acid], for which the “solubility in water (30°C)” value in series [1] (weight of solute per 1 L of distilled water in a saturated aqueous solution at 30°C) is 300 mg/mL (≈ 1390 mM).

For `O=C(O)/C=C\C(=O)O` [maleic acid], the solubility (commonly how much of the substance goes into solution per volume) in series [1] was found to be 800 mg/mL (≈ 6890 mM).

Turning to `O=C(O)c1ccccc1C(=O)O` [phthalic acid], the solubility in series [1] was 9 mg/mL (≈ 54.2 mM).

On to `O=C(O)c1ccc(C(=O)O)c(C(=O)O)c1` [trimellitic acid], for which the solubility in series [1] is 20 mg/mL (≈ 95.2 mM).

For the compound tetrahydrophthalic acid, the “solubility in water (30°C)” value came out at 5 mg/mL.
